In publication PMC6409468, “Isolation and identification of angiotensin I-converting enzyme inhibitory peptides derived from thermolysin-injected beef M. longissimus” (Asian-Australasian Journal of Animal Sciences, 2018):
Residues, ends and D or L forms follow the SMILES beside them. No end group written: not given here.

Each compound was assayed against T1, ACE (from rabbit lung) (Oryctolagus cuniculus, UniProt P12822) (assay: ACE inhibitory activity, spectrophotometric method (HHL substrate, hippuric acid at 228 nm)). Details: chemically synthesized peptides.
T1 construct: ACE (peptidyldipeptide hydrolase from rabbit lung acetone extract); purchased Sigma; host or cells: rabbit lung (acetone extract)
T1 sequence (P12822 34-1310): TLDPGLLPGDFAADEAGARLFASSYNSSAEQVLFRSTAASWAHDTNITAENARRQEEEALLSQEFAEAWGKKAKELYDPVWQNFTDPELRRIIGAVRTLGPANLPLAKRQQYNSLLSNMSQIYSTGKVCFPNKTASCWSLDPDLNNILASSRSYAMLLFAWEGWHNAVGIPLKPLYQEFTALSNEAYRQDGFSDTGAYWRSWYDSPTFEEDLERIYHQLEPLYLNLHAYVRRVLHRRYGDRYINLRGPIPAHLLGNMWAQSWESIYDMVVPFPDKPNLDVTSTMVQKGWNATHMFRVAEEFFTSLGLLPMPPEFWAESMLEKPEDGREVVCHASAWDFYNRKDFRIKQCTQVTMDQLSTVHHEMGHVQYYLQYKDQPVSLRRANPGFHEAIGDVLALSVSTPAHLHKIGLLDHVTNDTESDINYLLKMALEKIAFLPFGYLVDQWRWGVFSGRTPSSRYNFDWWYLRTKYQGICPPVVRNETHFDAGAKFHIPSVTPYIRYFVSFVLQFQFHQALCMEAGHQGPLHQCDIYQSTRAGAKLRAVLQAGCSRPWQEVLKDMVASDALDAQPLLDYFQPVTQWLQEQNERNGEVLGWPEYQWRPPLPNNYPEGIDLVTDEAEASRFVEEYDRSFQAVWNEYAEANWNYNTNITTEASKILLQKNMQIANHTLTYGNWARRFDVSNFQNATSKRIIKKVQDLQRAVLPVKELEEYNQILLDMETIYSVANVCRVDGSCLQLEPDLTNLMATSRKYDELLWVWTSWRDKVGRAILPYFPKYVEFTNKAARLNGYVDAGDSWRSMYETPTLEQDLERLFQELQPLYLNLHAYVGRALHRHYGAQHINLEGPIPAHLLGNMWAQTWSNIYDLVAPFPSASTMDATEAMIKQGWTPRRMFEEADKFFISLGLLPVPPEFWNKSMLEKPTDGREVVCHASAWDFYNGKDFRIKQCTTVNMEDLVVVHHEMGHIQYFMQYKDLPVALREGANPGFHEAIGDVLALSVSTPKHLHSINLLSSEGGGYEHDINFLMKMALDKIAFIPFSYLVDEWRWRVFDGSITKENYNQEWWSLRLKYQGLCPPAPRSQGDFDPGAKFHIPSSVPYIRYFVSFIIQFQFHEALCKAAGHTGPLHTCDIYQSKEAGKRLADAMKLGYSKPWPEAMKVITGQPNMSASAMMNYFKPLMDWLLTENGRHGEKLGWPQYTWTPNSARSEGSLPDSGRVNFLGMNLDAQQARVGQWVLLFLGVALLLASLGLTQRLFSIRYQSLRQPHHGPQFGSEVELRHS
Assay type: biochemical
Protocol: ACE inhibitory activity determination was achieved using the spectrophotometric method described by Cushman and Cheung. For each assay, 100 μL of HHL (12.5 mM in 0.05 M sodium borate buffer) was incubated at 37°C for 5 min. After incubation, 50 μL of bovine peptide extracts and 150 μL of ACE (peptidyldipeptide hydrolase from rabbit lung acetone extract) were added and the mixture incubated for 1 h. The enzymatic reaction was stopped by adding 250 μL of 0.5 N HCl. The hippuric acid generated by the action of the angiotensin-converting enzyme on HHL was extracted from the acidified solution into 1 mL ethyl acetate by vortex mixing for 15 s. This was centrifuged at 3,290×g for 10 min at 4°C, and a 0.7 mL aliquot of each ethyl acetate layer was transferred to clean tubes and evaporated by heating at 95°C for 20 min in a water bath. The hippuric acid was redissolved in 3 mL of 1 M NaCl, and the amount formed was determined by absorbance at 228 nm. The IC50 value, defined as the concentration of a peptide that inhibits 50% of the ACE activity, was determined by measuring the ACE inhibitory activity and the peptide contents of each of the extracts after regression analysis. ACE inhibitory activity (%) was determined using the equation:
ACE inhibitory activity (%)=[1-(S-SC)/(B-BC)]×100
where S and B are optical density (OD) values for the sample and blank, respectively, and SC and BC are the OD values for the sample control and blank, respectively.

Row | Compound | IC50 [mM]
1 | N=C(N)NCCC[C@H](NC(=O)[C@@H](N)Cc1ccc(O)cc1)C(=O)N[C@@H](CCC(N)=O)C(=O)O [Tyr-Arg-Gln] (H-Tyr-Arg-Gln-OH) | 3.09
2 | N[C@@H](Cc1ccc(O)cc1)C(=O)NCC(=O)O [Tyr-Gly] | 12.7
3 | NC(=O)C[C@H](NC(=O)[C@H](Cc1ccccc1)NC(=O)[C@@H](N)Cc1ccc(O)cc1)C(=O)N[C@@H](CCC(=O)O)C(=O)O [Tyr-Phe-Asn-Glu] (H-YFNE-OH) | 7.62
4 | N[C@@H](Cc1ccc(O)cc1)C(=O)N[C@@H](Cc1ccc(O)cc1)C(=O)O [Tyr-Tyr] (H-Tyr-Tyr-OH) | 8.6
5 | CC(C)[C@H](N)C(=O)N[C@@H](CO)C(=O)N[C@@H](CO)C(=O)N[C@H](C(=O)O)C(C)C [Val-Ser-Ser-Val] (H-VSSV-OH) | 8.49
6 | QPSGSQ [Gln-Pro-Ser-Gly-Ser-Gln] | 8.78

Next, values leading:

Row | IC50 [mM] | Compound
7 | 0.89 | CC(C)C[C@H](N)C(=O)N[C@@H](CO)C(=O)N[C@@H](Cc1c[nH]c2ccccc12)C(=O)O [Leu-Ser-Trp] (H-Leu-Ser-Trp-OH)
8 | 5.92 | CSCC[C@H](N)C(=O)N[C@@H](C)C(=O)N[C@@H](CC(=O)O)C(=O)N[C@@H](C)C(=O)O [Met-Ala-Asp-Ala] (H-MADA-OH)
9 | 2.69 | N[C@@H](Cc1ccccc1)C(=O)NCC(=O)N[C@@H](Cc1ccc(O)cc1)C(=O)O [Phe-Gly-Tyr] (H-Phe-Gly-Tyr-OH)
10 | 5.21 | LWHHT [Leu-Trp-His- His-Thr]
